Here are results for 4 compounds from PMC9412534, “Diindolylmethane Derivatives: New Selective Blockers for T-Type Calcium Channels” (Membranes, 2022).

Assay [1] has as its target T1, recombinant hCaV3.3 channels (Homo sapiens, UniProt Q9P0X4).
T1 construct: the only CaV3.3-expressing cells described
As to the kind of experiment: Whole-cell patch-clamp (QPatch), CaV3.3. Format: cell-based. The following applies: for extent of block of CaV3.3 whole-cell inward Ca2+ current: QPatch; for IC50: whole-cell current, holding potential −90 mV, n = 3–5. As for the experimental part:
(§1) The human embryonic kidney 293 (HEK 293) cell lines (from Emmanuel Bourinet, Montpellier, France) stably expressing CaV3.2 or CaV3.3 were cultured under 5% carbon dioxide at 37 °C in Dulbecco’s Modified Eagle Medium (DMEM) Glutamax (Gibco, Life Technologies, Carlsbad, CA, USA) supplemented with 10% (v/v) fetal bovine serum (FBS), 100 U/mL penicillin, 100 μg/mL streptomycin (Gibco, Life Technologies, Carlsbad, CA, USA), and 750 μg/mL geneticin (G418) (Gibco, Life Technologies). The Chinese Hamster Ovary (CHO) cell lines (Emmanuel Bourinet, Montpellier, France) expressing CaV3.1 were cultured under 5% carbon dioxide at 37 °C in Alpha Minimum Essential Media (MEM) Glutamax (Gibco, Life Technologies), supplemented with 10% (v/v) fetal bovine serum (FBS) and 300 μg/mL geneticin (G418) (Gibco, Life Technologies). The human neuroblastoma SH-SY5Y cells (Victor Diaz, Goettingen, Germany) were cultured under 5% carbon dioxide at 37 °C in RPMI 1640 antibiotic-free medium (Invitrogen, Carlsbad, CA, USA), supplemented with 15% FBS and 2 mM GlutaMAX™ (Invitrogen). D-PBS (Gibco, Life Technologies) was used to wash the cells, and 0.25% Trypsin-EDTA (Gibco, Life Technologies) was used to detach cells from the flask surface. They were split in a ratio of 1:5 (ideally 1000 cells/cm^2) when they reached 70–80% confluence (every 2–3 days). Transiently transfected CaV3.1 HEK293 T cells were used in FLIPR Assays. HEK 293 T cells were cultured under 5% carbon dioxide at 37 °C in DMEM supplemented with 10% (v/v) FBS. D-PBS was used to wash the cells, and 0.25% Trypsin-EDTA was used to detach cells from the flask surface. The cells were split and seeded at 6 million cells per T175 flask, to reach 70–80% confluence after 24 h. The next day, 12 μg DNA of human CaV3.1 was incubated in 900 μL serum-free DMEM with 36 μL FuGENE HD transfection reagent (Promega Corporation, Madison, WI, USA) (1:3 DNA/Fugene ratio) for 20 min, and then the mixture was added into the cell flask slowly, drop by drop. After the transfection, the cells were cultured under 5% carbon dioxide at 37 °C for 24 h and then moved to a 28 °C incubator.
(§2) Whole-cell patch-clamp experiments were performed on an automated electrophysiology platform QPatch 16 X (Sophion Bioscience A/S, Ballerup, Denmark) in single-hole configuration using 16-channel planar patch chip QPlates (Sophion Bioscience A/S). The extracellular recording solution contained, in mM: TEACl 157, MgCl2 0.5, CaCl2 5, and HEPES 10; pH 7.4 adjusted with TEAOH; and osmolarity 320 mOsm. The intracellular pipette solution contained, in mM: CsF 140, EGTA 1, HEPES 10, and NaCl 10; pH 7.2 adjusted with CsOH; and osmolarity 325 mOsm. Compounds were diluted in extracellular recording solution with 0.1% BSA at the concentrations stated (DMSO ≤ 0.1%), and the effects of compounds were compared to the control (extracellular solution with 0.1% BSA) parameters within the same cell. Compounds’ incubation time varied from two (for the highest concentration) to five (for the lowest concentration) minutes by applying the voltage protocol 10–30 times at 10 s intervals to ensure steady-state inhibition was achieved. The effects of compounds were obtained using 200 ms voltage steps to peak potential from a holding potential of −90 mV. Current–voltage (I–V) relationships were obtained by holding the cells at a potential of −100 mV before applying 50 ms pulses to potentials from −75 to +50 mV every 5 s in 5 mV increments. […]
(In patch-clamp work, channel activity is measured electrically.)

Assay [2] deals with T2, recombinant hCaV3.1 channels (Homo sapiens, UniProt O43497).
T2 construct: host or cells: probably the CHO cell line expressing CaV3.1 (inferred: transient HEK293T cells are assigned to FLIPR only)
T2 sequence (O43497 whole entry): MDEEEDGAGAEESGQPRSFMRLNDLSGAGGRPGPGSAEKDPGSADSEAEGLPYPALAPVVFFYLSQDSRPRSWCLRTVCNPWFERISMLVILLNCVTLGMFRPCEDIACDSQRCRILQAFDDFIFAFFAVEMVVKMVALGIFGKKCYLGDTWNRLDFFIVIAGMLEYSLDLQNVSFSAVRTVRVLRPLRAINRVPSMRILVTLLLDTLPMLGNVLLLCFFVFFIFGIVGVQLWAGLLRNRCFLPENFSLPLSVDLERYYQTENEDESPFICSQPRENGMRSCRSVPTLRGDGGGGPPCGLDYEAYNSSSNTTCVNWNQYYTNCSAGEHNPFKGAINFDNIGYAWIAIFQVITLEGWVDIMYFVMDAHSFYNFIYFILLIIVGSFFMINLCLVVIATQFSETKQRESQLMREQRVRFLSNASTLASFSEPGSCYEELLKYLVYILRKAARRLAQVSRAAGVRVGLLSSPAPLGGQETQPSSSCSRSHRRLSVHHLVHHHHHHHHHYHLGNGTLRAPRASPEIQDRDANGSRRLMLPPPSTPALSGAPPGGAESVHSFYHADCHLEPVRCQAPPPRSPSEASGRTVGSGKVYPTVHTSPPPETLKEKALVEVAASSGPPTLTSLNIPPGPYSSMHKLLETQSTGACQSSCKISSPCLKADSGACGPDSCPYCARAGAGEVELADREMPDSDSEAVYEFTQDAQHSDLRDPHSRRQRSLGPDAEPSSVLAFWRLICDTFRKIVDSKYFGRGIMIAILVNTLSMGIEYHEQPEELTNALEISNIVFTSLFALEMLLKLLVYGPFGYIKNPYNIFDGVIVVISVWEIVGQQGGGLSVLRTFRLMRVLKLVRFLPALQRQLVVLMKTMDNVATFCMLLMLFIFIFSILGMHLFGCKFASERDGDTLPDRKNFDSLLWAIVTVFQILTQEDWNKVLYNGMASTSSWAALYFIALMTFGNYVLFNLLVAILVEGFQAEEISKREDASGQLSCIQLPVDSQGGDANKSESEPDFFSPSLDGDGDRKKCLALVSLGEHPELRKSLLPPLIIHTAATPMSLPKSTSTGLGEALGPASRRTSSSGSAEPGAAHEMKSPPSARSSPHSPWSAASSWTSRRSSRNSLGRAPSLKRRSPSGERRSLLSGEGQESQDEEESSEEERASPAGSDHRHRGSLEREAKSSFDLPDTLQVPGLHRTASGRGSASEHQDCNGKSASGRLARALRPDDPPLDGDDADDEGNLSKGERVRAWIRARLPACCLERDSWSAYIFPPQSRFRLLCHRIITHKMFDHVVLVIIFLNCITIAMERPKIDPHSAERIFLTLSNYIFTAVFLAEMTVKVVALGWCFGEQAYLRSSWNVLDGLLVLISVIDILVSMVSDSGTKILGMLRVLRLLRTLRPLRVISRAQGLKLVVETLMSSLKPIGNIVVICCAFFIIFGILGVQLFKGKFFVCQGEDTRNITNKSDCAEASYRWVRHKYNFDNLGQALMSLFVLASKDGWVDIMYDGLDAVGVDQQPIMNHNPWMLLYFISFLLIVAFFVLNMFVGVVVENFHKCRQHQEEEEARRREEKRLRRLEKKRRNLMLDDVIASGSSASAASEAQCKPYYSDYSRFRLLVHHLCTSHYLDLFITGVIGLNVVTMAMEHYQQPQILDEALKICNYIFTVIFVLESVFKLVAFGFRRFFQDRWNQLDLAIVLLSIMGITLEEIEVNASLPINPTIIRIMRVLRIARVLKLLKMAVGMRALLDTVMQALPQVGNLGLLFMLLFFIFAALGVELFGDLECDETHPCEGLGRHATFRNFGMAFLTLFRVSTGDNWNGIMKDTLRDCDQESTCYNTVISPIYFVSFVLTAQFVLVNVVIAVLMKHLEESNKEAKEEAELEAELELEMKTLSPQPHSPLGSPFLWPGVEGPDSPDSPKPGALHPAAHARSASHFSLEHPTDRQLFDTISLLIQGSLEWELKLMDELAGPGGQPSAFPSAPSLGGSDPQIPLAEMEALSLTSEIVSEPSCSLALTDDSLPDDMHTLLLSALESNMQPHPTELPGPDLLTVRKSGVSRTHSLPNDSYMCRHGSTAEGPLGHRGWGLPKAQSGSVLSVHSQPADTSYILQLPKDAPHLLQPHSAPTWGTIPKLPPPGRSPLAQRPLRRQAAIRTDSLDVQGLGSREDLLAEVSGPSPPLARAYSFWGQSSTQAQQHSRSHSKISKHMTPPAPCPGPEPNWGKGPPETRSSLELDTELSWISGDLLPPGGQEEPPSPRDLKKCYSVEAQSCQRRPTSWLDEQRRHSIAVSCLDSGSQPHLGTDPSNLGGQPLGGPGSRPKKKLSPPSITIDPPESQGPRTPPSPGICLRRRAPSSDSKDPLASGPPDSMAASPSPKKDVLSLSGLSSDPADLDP
Put plainly: Whole-cell patch-clamp (QPatch), CaV3.1. The note with it: for IC50: whole-cell current, holding potential −90 mV, n = 3–5. Format: cell-based. On the procedure:
as §1, §2

A further assay concerns T-47D cells. As to the kind of experiment: Cell viability MTT assay, T-47D. The following applies: for viability at 50 µM: n = 4; for IC50: n = 3. In kind it is cell-based, human. On the procedure: (§3) Human breast cancer cell line MCF-7 and T-47D, lung cancer cell line A549, and colon cancer cell line HT-29 were cultured under 5% carbon dioxide at 37 °C in DMEM Glutamax (Gibco, Life Technologies) supplemented with 10% (v/v) FBS. They were split in a ratio of 1:3–1:6 (ideally 2–4 × 10,000 cells/cm^2) when they reached 70–80% confluence using 0.25% Trypsin-EDTA. For cell viability MTT assay, cells were seeded into 96-well clear bottom culture plates (Corning, Lowell, MA, USA) at a density of 5 × 10^3 cells/well and settled at 37 °C for 24 h.
(§4) Seeded cells were treated with various concentrations of compounds for desired time period (24, 48 and 72 h). After the treatments, the media were removed from each well, and replaced with 25 μL of serum-free media and 25 μL of MTT Reagent (cat. no., ab211091; Abcam, Cambridge, MA, USA). The plate was then incubated at 37 °C for 3 h, and 75 μL of MTT Solvent (cat. no., ab211091; Abcam) was added into each well after incubation. The absorbance was evaluated at 590 nm. Cell-wells treated with 0.1% DMSO were used as positive control and no cell-wells were used as background control.
In general terms: Formazan colour is commonly taken as a measure of viable cells.

The test system of a further assay is A549 cells. As to the kind of experiment: Cell viability MTT assay, A549. In kind it is cell-based, human. The note with it: for viability at 50 µM: A549, 50 µM, n = 4; for IC50: n = 3. As for the experimental part: as §3, §4
The next assay concerns MCF-7 cells. As to the kind of experiment: Cell viability MTT assay, MCF-7. Format: cell-based, human. The note with it: for viability at 50 µM: MCF7, 50 µM, n = 4; for IC50: n = 3. On the procedure:
as §3, §4

Where [3] appears, read: Homo sapiens, T47D, 72 h treatment.
Where [4] appears, read: Homo sapiens, T47D, 72 h, 72 h treatment.
Setting [5] is: Homo sapiens, A549, 72 h, 72 h treatment.
The mark [6] stands for this setting: Homo sapiens, MCF7, 72 h, 72 h treatment.

Molecules are shown by their SMILES. Entries after “also recorded” stand apart in the source; their conditions may differ.

T1 sequence (Q9P0X4 whole entry): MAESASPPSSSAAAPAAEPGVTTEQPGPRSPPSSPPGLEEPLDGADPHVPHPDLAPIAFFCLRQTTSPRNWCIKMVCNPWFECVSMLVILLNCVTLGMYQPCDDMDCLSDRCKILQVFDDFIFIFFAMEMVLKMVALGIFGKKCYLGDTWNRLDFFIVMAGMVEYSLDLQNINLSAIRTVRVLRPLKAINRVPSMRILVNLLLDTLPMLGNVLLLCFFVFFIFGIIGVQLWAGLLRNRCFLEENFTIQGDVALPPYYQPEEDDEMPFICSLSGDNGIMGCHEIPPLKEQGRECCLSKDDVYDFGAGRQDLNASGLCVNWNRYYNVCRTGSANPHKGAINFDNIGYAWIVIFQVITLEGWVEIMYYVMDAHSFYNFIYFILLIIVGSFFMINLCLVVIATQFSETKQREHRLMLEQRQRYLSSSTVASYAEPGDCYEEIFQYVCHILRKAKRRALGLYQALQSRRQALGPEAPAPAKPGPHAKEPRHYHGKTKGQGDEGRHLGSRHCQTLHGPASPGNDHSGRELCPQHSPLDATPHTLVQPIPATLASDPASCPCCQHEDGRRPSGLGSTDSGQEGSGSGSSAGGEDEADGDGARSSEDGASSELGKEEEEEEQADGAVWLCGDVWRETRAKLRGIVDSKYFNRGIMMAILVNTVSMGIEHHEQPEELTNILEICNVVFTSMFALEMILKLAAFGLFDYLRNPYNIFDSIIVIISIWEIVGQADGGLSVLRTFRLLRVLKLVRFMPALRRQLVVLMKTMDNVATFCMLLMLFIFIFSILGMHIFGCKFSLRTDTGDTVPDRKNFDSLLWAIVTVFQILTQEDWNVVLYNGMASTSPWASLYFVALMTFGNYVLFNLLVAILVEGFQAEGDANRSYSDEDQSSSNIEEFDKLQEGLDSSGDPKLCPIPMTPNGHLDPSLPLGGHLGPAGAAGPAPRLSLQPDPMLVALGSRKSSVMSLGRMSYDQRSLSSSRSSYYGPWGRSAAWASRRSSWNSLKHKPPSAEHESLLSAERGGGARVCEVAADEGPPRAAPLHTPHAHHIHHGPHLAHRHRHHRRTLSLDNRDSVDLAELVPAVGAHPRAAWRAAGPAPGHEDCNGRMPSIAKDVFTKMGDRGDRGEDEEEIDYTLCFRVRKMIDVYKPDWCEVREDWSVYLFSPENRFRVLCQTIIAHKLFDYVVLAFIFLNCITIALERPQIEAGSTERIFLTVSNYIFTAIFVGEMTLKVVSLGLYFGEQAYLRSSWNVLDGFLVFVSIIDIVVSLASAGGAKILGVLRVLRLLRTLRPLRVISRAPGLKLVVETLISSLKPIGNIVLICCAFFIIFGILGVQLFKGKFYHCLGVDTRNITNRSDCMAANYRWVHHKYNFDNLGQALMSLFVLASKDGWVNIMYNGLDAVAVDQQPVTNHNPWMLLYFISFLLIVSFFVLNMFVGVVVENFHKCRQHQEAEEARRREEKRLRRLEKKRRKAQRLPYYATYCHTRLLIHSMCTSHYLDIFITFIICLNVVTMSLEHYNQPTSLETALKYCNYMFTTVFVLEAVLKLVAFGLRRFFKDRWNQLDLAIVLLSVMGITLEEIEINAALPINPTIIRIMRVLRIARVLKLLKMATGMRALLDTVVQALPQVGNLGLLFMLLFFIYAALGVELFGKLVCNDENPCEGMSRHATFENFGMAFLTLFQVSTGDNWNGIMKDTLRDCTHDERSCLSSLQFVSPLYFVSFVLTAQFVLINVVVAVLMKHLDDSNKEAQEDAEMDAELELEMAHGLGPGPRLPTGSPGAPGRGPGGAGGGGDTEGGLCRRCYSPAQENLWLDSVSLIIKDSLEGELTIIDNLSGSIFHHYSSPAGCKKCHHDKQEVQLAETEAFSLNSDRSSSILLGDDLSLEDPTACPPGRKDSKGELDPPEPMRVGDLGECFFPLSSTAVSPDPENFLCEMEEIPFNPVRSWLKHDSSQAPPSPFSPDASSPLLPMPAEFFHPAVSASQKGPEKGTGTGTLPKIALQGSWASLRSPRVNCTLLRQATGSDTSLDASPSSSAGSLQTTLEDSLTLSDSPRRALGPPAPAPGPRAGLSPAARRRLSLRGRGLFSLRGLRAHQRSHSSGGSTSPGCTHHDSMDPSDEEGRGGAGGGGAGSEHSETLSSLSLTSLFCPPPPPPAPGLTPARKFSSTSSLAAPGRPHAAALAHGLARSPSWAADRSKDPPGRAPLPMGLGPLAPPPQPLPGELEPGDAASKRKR

Consider `O=C(c1cn(Cc2ccccc2)c2ccccc12)c1cn(Cc2ccccc2)c2ccccc12` [IX, bis(1-benzyl-1H-indol-3-yl)methanone], for which, in assay [1], the “extent of block of CaV3.3 whole-cell inward Ca2+ current” value is given as “partially blocked; also recorded: only partial inhibition” and the IC50 (commonly the point on the concentration scale where inhibition reaches its midpoint) came out at 2.09 ± 0.69 µM. For the same compound, in assay [2], the IC50 was 47.4 ± 11.7 µM.

In the case of `O=C(c1c[nH]c2ccccc12)c1c[nH]c2ccccc12` [DIM-one, 3,3′-diindolylmethanone], the viability (usually a per cent measure of how many cells are alive, often set against a control) at 50 µM in the assay with T-47D cells (setting [3]) was found to be 50.6 ± 2.08%; with A549 cells (Homo sapiens, 72 h treatment) it was 81.3 ± 3%; with MCF-7 cells (Homo sapiens, 72 h treatment) it was 52.3 ± 3.12%. The IC50 with T-47D cells (setting [4]) is 44 µM; in assay [1], over 50 µM; with A549 cells (setting [5]), 66 µM; in assay [2] it was 1.53 µM; with MCF-7 cells (setting [6]) it was 42 µM. For the same compound, in assay [1], the “extent of block of CaV3.3 whole-cell inward Ca2+ current” value is “poor inhibition”.

For `O=C(c1c[nH]c2cc(Br)ccc12)c1c[nH]c2cc(Br)ccc12` [IV], the IC50 in the assay with T-47D cells (72 h treatment) came to 4.1 µM; in the assay with T-47D cells (Homo sapiens, T47D, 24 h, 24 h treatment), 13.8 µM; in the assay on T-47D cells (Homo sapiens, T47D, 48 h, 48 h treatment), 3.9 µM; in the assay on T-47D cells (setting [4]) it was 4 µM; in the assay on A549 cells (72 h treatment), 3.5 µM; in the assay with A549 cells (Homo sapiens, A549, 24 h, 24 h treatment), 8 µM. The IC50 in the assay with A549 cells (Homo sapiens, A549, 48 h, 48 h treatment) was determined as 4.7 µM; in the assay on A549 cells (setting [5]), 3 µM; with MCF-7 cells (72 h treatment), 6.1 µM; in the assay on MCF-7 cells (Homo sapiens, MCF7, 24 h, 24 h treatment), 9.8 µM; with MCF-7 cells (setting [6]), 6 µM. The viability at 50 µM turned out to be 6.14 ± 0.55% in the assay with T-47D cells (setting [3]); 2.92 ± 0.29% in the assay with A549 cells (Homo sapiens, 72 h treatment); 6.35 ± 0.46% in the assay with MCF-7 cells (Homo sapiens, 72 h treatment).

Take `c1ccc2c(Cc3c[nH]c4ccccc34)c[nH]c2c1` [DIM, 3,3′-diindolylmethane, reference compound]: the viability at 50 µM with T-47D cells (setting [3]) worked out at 18.9 ± 1.15%; in the assay on A549 cells (Homo sapiens, 72 h treatment), 55.6 ± 1.13%; in the assay with MCF-7 cells (Homo sapiens, 72 h treatment), 3.65 ± 0.24%. Also, the IC50 in the assay on T-47D cells (setting [4]) was 36 µM; in assay [1], 9.63 ± 0.97 µM; with A549 cells (setting [5]), 47 µM; in assay [2], 8.32 ± 1.53 µM; in the assay on MCF-7 cells (setting [6]), 27 µM. Also, the “effect of low concentrations on CaV3.1 channel current” value in assay [2] (QPatch, 49 nM–3.1 µM) was “weakly enhanced”. The “shift in the I–V relationship of CaV3.1” value in assay [2] (QPatch, 2.5 µM and 15 µM) is listed as “not accompanied by shifts”.
